For one series, the system named is C. elegans. Kind of series: Nile red (NR) staining of stored body lipids in vivoChip. The format is in vivo. To be noted: co-cultured for the entire 72 hours, versus control worms. Here is the method:
Liquid culture of C. elegans: Worms are synchronized by bleaching a population of gravid C. elegans using the hypochlorite solution. The embryos are then incubated in a glass tube and rotated for 24 hours at 20° C. About 80 larval 1 (L1) worms are plated into a standard 24-well plastic plate with 500 μl S media and HB101 bacteria. The worms are exposed to chemicals or ingredients during the growth in the liquid media for 3 days in a 20° C. incubator.
Imaging of C. elegans using vivoChip: The C. elegans are fed with bacteria and treated with test chemicals for 72 hours in a 20° C. incubator. […] The vivoChip technology allows capture of bright field or fluorescence images from the worms immobilized inside the microfluidic channels.
Nile red (NR) staining to study body lipids: To stain lipid molecules in the C. elegans body, 30 ng/ml and 50 ng/mL were added to the liquid culture at the L1 stage (a total of 72-hour incubation) and L4 stage animals (a total of 24-hour incubation) and maintained the plate at 20° C. […] Bright-field and fluorescence (red filter set) were acquired to capture worm development and the stored lipids in the C. elegans populations.
Analysis of NR signal: The individual channels were analyzed to identify the NR signal, mainly within the worm intestinal […] (FIG. 23A). […]

In a further series the test system is wild-type N2 worms. Briefly: Pilot DART imaging of N2 worms treated with FUdR in a small-scale vivoChip. The format is in vivo, C. elegans. Conditions: for EC50: Caenorhabditis elegans, N2 L1 larvae, 0-10,000 μM, 72 hrs at 20° C., D1 adults. Here is the method:
(§1) Strains and maintenance: The study used the N2 wild type (The Caenorhabditis Natural Diversity Resource, CaeNDR) for all experiments except for the initial vivoChip-2× pilot study, where the study used N2 wild types from the Caenorhabditis Genetics Center (CGC). C. elegans were maintained using the standard methods on nematode growth media (NGM) plates seeded with HB101 Escherichia coli bacteria and maintained at 20° C.. Frozen stocks of strains were also maintained at −80° C. and thawed each year to generate a new set of Dauer plates. Sealed Dauer plates for each strain were stored at 16° C. and used to start a fresh maintenance culture every 3 months by chunking to avoid genetic drift. Worms were cultured for >5 generations before using them for assays in a temperature and humidity-controlled environment.
(§2) Worm synchronization and large-scale culture: To prepare large numbers of synchronized L1 stage larvae, P0 larval 4 (L4) worms were transferred to NGM plates and grown for 96 hrs till the F1 generation reached maturity, removing the P0 adults after 48 hrs. D1 animals were treated with an alkaline sodium hypochlorite solution with periods of slow and high-speed shaking on a speed-controllable vortex to fragment their bodies and release the embryos before the bleaching solution was neutralized with 5 washes of M9. The eggs were allowed to develop and hatch in the M9 buffer in a rotating glass conical tube for 24 hrs. Hatched synchronized L1s were filtered through a 20 μm cell filter to remove unhatched eggs and debris, counted the number of total larvae, and adjusted the volume to make a final suspension of L1 larvae at a density of ~100 L1s/20 μl.
Chemical treatment in liquid culture: The age-synchronized L1 suspension (~100 larvae in 20 μl volumes) was placed in a standard 24-well plate with 480 μl HB101 (OD600^=3.0) suspension in S media. 2.5 μl of chemicals dissolved in H2O, or 1 μL of the chemicals in DMSO were added to the designated wells, keeping solvent concentration constant across all wells. Vehicle control wells received the same volume of each solvent (H2O or 0.2% DMSO). […]
For the initial testing of this hypothesis, this study explored the response of wild-type N2 worms when treated various doses of 5-Fluoro-2′-deoxyuridine (FUdR), a drug commonly used to prevent the development of live offspring in C. elegans experimental cultures. […] The length of all worms in each concentration were manually measured by taking the distance from the head to the tail of each animal. The study counted the total number of embryos and the number of embryos visibly moving within the eggshells in each worm through the time stacks (FIGS. 1C-1E).

The next series concerns CL2166 strain. To be noted: CL2166, 5.66 μl of 3% H2O2 in 500 μl culture at 68 hours, 4 hours exposure.
In another series the test system is C. elegans pharynx. Kind of series: Pharynx size analysis from bright field images in vivoChip. To be noted: D1 adults, 1.6 μM, DMSO (0.25%), treated from L1 stage. The format is in vivo. The text has this: FIGS. 25A-25C depict identifying C. elegans organs and organ structures using high-resolution, bright field, and fluorescence images using the vivoChip platform. […] The schematic represents different organs that could be identified and analyzed using image processing or automated machine learning algorithms.
Identifying internal organs and organ structures of C. elegans using bright field and fluorescence images: Overall morphology of changes in different tissues within a C. elegans body. Due to the dynamic nature of the tissue architectures, it is expected to change over the animal's age. This approach was used to track tissue architecture during early adult stage C. elegans quantitatively (FIG. 25A). As an example, the study analyzed the pharynx within the C. elegans immobilized inside the vivoChip. […] This well-studied organ has been used to screen several therapeutic drugs and to characterize the amount of food intake readouts. […]
C. elegans pharynxes present in the best focal plane from individual channels were manually segmented. […] Once the C. elegans body is detected, specific organs can be characterized using the fluorescence reporter (transgenic strains) or fluorescent dyes (feeding or soaking with dye). For example, C. elegans were fed with FITC-dextran overnight to visualize the green signal using fluorescence imaging of device-immobilized animals. […]

The test system of a further series is C. elegans N2 wild type. Briefly: vivoChip-24x C. elegans DART assay (72 hr liquid culture from L1, 4D imaging of D1 adults). The format is in vivo. As to the method:
as §1
Food preparation: HB101 was streaked on a Luria-Bertani (LB) agar plate with streptomycin (antibiotic) and incubated overnight at 37° C. to generate single colonies. One colony was picked and used to inoculate an overnight 5 mL starter culture in LB broth and antibiotic. 200 μl of this starter culture was added to 200 mL LB broth/streptomycin in a 1000 mL baffled flask and incubated for 18 h with 180 rotations per min (rpm) shaking to reach the end of the log growth phase. OD600 was measured using an Implen DiluPhotometer, and the culture was stored at 4° C. Immediately before worm culture, a sufficient volume of the bacterial culture was centrifuged to generate the required volume of OD600^=3.0 food suspension. The LB supernatant was removed and the pellet was resuspended in S media. This density was optimal for growing 80-100 larval 1 (L1) to the day 1 (D1) adult stage in a 500 μl culture volume with food remaining after 72 hrs, but not so much residual food particles as to interfere with imaging or chip operation.
Chemicals: Methylmercury (II) hydroxide (CH3Hg, Alfa Aesar, CAS #1184-57-2) and 5-Fluoro-2′-deoxyuridinc (FUdR, TCI Chemical, CAS #50-91-9) were dissolved in ultrapure water as master stocks at 200× highest treatment concentration. Propiconazole (Sigma Aldrich, CAS #60207-90-1) was dissolved in dimethylsulfoxide (Sigma Aldrich, CAS #67-68-5) as master stocks at 500× highest treatment concentration. The master stocks were transferred into 0.2 ml tubes as single-use aliquots and kept at −80° C. until needed. The 1 μM dose of CH3Hg was prepared by diluting the stock in ultrapure water prior to the treatment. For the dose-response assays, propiconazole was diluted immediately prior to treatment by serial dilution in DMSO to 500× working dilutions as needed, so that the final DMSO concentration in each well would be 0.2%. DMSO was also added to both the solvent control wells and the CH3Hg control wells to 0.2%.
as §2
Chemical treatment in liquid culture: The age-synchronized L1 suspension (~100 larvae in 20 μl volumes) was placed in a standard 24-well plate with 480 μl HB101 (OD600^=3.0) suspension in S media. 2.5 μl of chemicals dissolved in H2O, or 1 μL of the chemicals in DMSO were added to the designated wells, keeping solvent concentration constant across all wells. […]

The test system of another series is Fathead minnow. Conditions: cited from earlier work.
For another series, the system named is Daphnia. To be noted: cited from earlier work.

What is called EC50 is the concentration at which the effect is half-maximal.

SMILES strings stand for the structures. “And” between values parts separate entries of the source, which are not always exact repeats. Equal entries are not always repeated. Where two headings read alike, the source gives them in different places.

Experimental for CL2166 strain: Image analysis of the C. elegans body and fluorescence signal: The images from the vivoChip platform were cropped into individual channels. The study determined the best focal plane for each worm image (bright-field images) from the stack of images. Individual channel image was analyzed using machine-learning algorithms (developed by vivoVerse) to predict the mask for the worm body inside the individual microfluidic channel. Since several organs in the worm body have a 3D architecture, the study created a maximum-intensity projection of multiple z-slice fluorescence images. Using the maximum projection image, the study then calculated the integrated fluorescence signal within the predicted body mask. The study also estimated the background signal from the pixels outside the body mask and within two successive channel regions. The background signal was used to estimate the corrected total C. elegans fluorescence (CTCF)=integrated density−(area of selected C. elegans body×fluorescence of background readings)
The study treated a transgenic strain expressing GFP when exposed to oxidative stress to quantify the stress level in individual worms using high-resolution imaging to quantify sub-lethal changes in the stress levels.
5.66 μl of 3% H2O2 was added to the 500 μl S media culture with worms at 68 hours to induce oxidative stress. […]

In the case of `NCCc1c[nH]c2ccc(O)cc12` [5-HT, serotonin], the “amount of lipids in the body visualized using NR staining” value in the series with C. elegans is “significantly lower amount of lipids”.
For the compound `O=c1[nH]c(=O)n([C@H]2C[C@H](O)[C@@H](CO)O2)cc1F` [FUdR, 5-Fluoro-2′-deoxyuridine], the EC50 with wild-type N2 worms (read-out: moving embryo parameter, EC50) turned out to be 26 µM; in the series with wild-type N2 worms (read-out: reduction in body length, EC50) it was 316 µM; with wild-type N2 worms (read-out: reduction in the number of total embryos, EC50), 98 µM. Moreover, the “concentration causing growth arrest at stages earlier than could be immobilized in the chip” value with wild-type N2 worms (N2 C. elegans, 0-10000 μM) is not below 500 µM.
Regarding `OO` [H2O2, hydrogen peroxide], in the series with CL2166 strain, the “increase of GFP intensity” value is reported as ~ 60%.
As for `CCOP(=S)(OCC)Oc1nc(Cl)c(Cl)cc1Cl` [chlorpyrifos], in the series on C. elegans pharynx, the “total pixels of pharynx compared to vehicle control (DMSO)” value is “reduced”.
As for `CCCC1COC(Cn2cncn2)(c2ccc(Cl)cc2Cl)O1` (stereo not drawn) [propiconazole], in the series with C. elegans N2 wild type (N2, 72 hrs), the “concentration at which reduced growth rate left worms too small to be immobilized in the microfluidic channels” value is recorded as not below 333 UM. In the series on C. elegans N2 wild type (N2, L1 to D1, 72 hrs, Hill fit), the “body length EC10” value is 117.5 µM, the “body volume EC10” value amounted to 74.9 µM, the “developed (moving+folded) embryos EC10” value worked out at 10.9 µM and the “moving embryos EC10” value stood at 10 µM. Besides, the “total embryos EC10” value with C. elegans N2 wild type (N2, L1 to D1, 72 hrs, Hill fit) came out at 48.8 µM. For the same compound, the “concentration from which fecundity was affected” value in the series on Fathead minnow is ≥ 0.5 mg/L and ≥ 1.46 μM. Besides, the “concentration from which embryonic development was affected” value in the series on Daphnia was ≥ 0.5 mg/L and ≥ 1.46 μM.

Values taken from patent US20260266805A1, “METHOD AND COMPOSITIONS FOR ANALYZING TOXICITY IN ORGANISMS” (priority 2023, published 2026).
